# Measured values as given in PubChem BioAssay (NCI).
#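 1) Cells in 96-well plates. 2) Compound, 48 h, 5 concentrations. 3) Linear interpolation between surrounding doses. 4) Unreached endpoint = highest concentration. Definition used: TGI = concentration required for complete inhibition of growth.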 Active and inactive are the calls of the source. Cut-off read from the data, not from the text of the source: active = GI50 below about 0.43 µM; inactive = the rest.
# Tests used:
# Assay in all cases: DTP human tumour cell line panel, 48 h
# [1] = test system: MCF7 breast
# [2] = test system: MOLT-4 leukemia
# [3] = test system: T-47D breast
# [4] = test system: HCT-15 colon
# [5] = test system: NCI-H23 lung
# [6] = test system: OVCAR-8 ovarian
# [7] = test system: SF-295 CNS
# [8] = test system: SK-MEL-2 melanoma
# [9] = test system: NCI-H226 lung
# [10] = test system: SK-MEL-5 melanoma
# [11] = test system: A498 renal
# [12] = test system: HT29 colon
# [13] = test system: DU-145 prostate
# [14] = test system: CAKI-1 renal
# [15] = test system: HS 578T breast
# [16] = test system: BT-549 breast
# [17] = test system: HCC-2998 colon
# [18] = test system: TK-10 renal
# [19] = test system: COLO 205 colon
# [20] = test system: OVCAR-5 ovarian
# [21] = test system: SN12C renal
# [22] = test system: SF-268 CNS
# [23] = test system: M14 melanoma
# [24] = test system: HOP-62 NSCLC
# [25] = test system: K-562 leukemia
# [26] = test system: SW-620 colon
# [27] = test system: HOP-92 NSCLC
# [28] = test system: IGROV1 ovarian
# [29] = test system: MDA-MB-435
# [30] = test system: HL-60(TB) leukemia
# [31] = test system: SR leukemia
# [32] = test system: U251 CNS
# [33] = test system: HCT-116 colon
# [34] = test system: SK-OV-3 ovarian
# [35] = test system: MALME-3M melanoma
# [36] = test system: A549 NSCLC
# [37] = test system: NCI-H460 lung
# [38] = test system: SK-MEL-28 melanoma
# [39] = test system: RXF 393 renal
# [40] = test system: UO-31 renal
# [41] = test system: CCRF-CEM leukemia
# [42] = test system: SNB-19 CNS
# [43] = test system: EKVX NSCLC
# [44] = test system: SF-539 CNS
# [45] = test system: MDA-N
# [46] = test system: OVCAR-3 ovarian
# [47] = test system: UACC-257 melanoma
# [48] = test system: UACC-62 melanoma
# [49] = test system: PC-3 prostate
# [50] = test system: MDA-MB-231 breast
# [51] = test system: SNB-75 CNS
# [52] = test system: LOX IMVI melanoma
# [53] = test system: OVCAR-4 ovarian
# [54] = test system: NCI/ADR-RES ovarian
# [55] = test system: NCI-H522 lung
# [56] = test system: ACHN renal
# [57] = test system: KM12 colon
# [58] = test system: 786-0 renal
smiles,measurement,setting,value
O=c1cc(-c2ccc(O)c(O)c2-c2c(O)cc(O)c3c(=O)cc(-c4ccc(O)c(O)c4-c4c(O)cc(O)c5c(=O)cc(-c6ccc(O)c(O)c6)oc45)oc23)oc2cc(O)cc(O)c12,outcome,[1],inactive
same,outcome,[2],inactive
same,outcome,[3],inactive
same,outcome,[4],inactive
same,outcome,[5],inactive
same,outcome,[6],inactive
same,outcome,[7],inactive
same,outcome,[8],inactive
same,outcome,[9],inactive
same,outcome,[10],inactive
same,outcome,[11],inactive
same,outcome,[12],inactive
same,outcome,[13],inactive
same,outcome,[14],inactive
same,outcome,[15],inactive
same,outcome,[16],inactive
same,outcome,[17],inactive
same,outcome,[18],inactive
same,outcome,[19],inactive
same,outcome,[20],inactive
same,outcome,[21],inactive
same,outcome,[22],inactive
same,outcome,[23],inactive
same,outcome,[24],inactive
same,outcome,[25],inactive
same,outcome,[26],inactive
same,outcome,[27],inactive
same,outcome,[28],inactive
same,outcome,[29],inactive
same,outcome,[30],inactive
same,outcome,[31],inactive
same,outcome,[32],inactive
same,outcome,[33],inactive
same,outcome,[34],inactive
same,outcome,[35],inactive
same,outcome,[36],inactive
same,outcome,[37],inactive
same,outcome,[38],inactive
same,outcome,[39],inactive
same,outcome,[40],inactive
same,outcome,[41],inactive
same,outcome,[42],inactive
same,outcome,[43],inactive
same,outcome,[44],inactive
same,outcome,[45],inactive
same,outcome,[46],inactive
same,outcome,[47],inactive
same,outcome,[48],inactive
same,outcome,[49],inactive
same,outcome,[50],inactive
same,outcome,[51],inactive
same,outcome,[52],inactive
same,outcome,[53],inactive
same,outcome,[54],inactive
CCCCCCCC/C=C\CCCCCCC/C=C1/C[C@](/C=C/C(=O)OC)(CO)OC1=O,TGI,[1],20.8 µM
same,TGI,[2],> 21.5 µM
same,TGI,[3],19.8 µM
same,TGI,[4],20.5 µM
same,TGI,[5],24.9 µM
same,TGI,[55],17.6 µM
same,TGI,[6],19.2 µM
same,TGI,[7],17.1 µM
same,TGI,[8],27.6 µM
same,TGI,[9],15.8 µM
same,TGI,[10],18 µM
same,TGI,[11],21.2 µM
same,TGI,[12],20.9 µM
same,TGI,[13],23.4 µM
same,TGI,[14],12.5 µM
same,TGI,[15],9.29 µM
same,TGI,[16],17.8 µM
same,TGI,[17],10.1 µM
same,TGI,[18],15.3 µM
same,TGI,[19],5.04 µM
same,TGI,[20],20.3 µM
same,TGI,[56],16.7 µM
same,TGI,[21],14.8 µM
same,TGI,[22],19.7 µM
same,TGI,[23],11.6 µM
same,TGI,[24],19 µM
same,TGI,[25],> 32.5 µM
same,TGI,[26],11.4 µM
same,TGI,[27],20.3 µM
same,TGI,[28],23.7 µM
same,TGI,[29],7.41 µM
same,TGI,[30],10.3 µM
same,TGI,[57],23.9 µM
same,TGI,[31],> 31.7 µM
same,TGI,[32],21.2 µM
same,TGI,[33],15.5 µM
same,TGI,[34],24.3 µM
same,TGI,[35],8.74 µM
same,TGI,[36],17.3 µM
same,TGI,[37],19.9 µM
same,TGI,[38],10.2 µM
same,TGI,[39],28.5 µM
same,TGI,[40],15 µM
same,TGI,[58],10.3 µM
same,TGI,[42],20.3 µM
same,TGI,[43],23 µM
same,TGI,[44],2.84 µM
same,TGI,[45],3.19 µM
same,TGI,[46],24 µM
same,TGI,[47],29.6 µM
same,TGI,[48],22.4 µM
same,TGI,[49],14.5 µM
same,TGI,[50],17.7 µM
same,TGI,[51],20.4 µM
same,TGI,[52],12.8 µM
same,TGI,[53],16.9 µM
same,TGI,[54],24 µM
